Reference: PMC10296036, “Inhibitory Potential of Synthetic Amino Acid Derivatives against Digestive Enzymes as Promising Hypoglycemic and Anti-Obesity Agents” (Biomolecules, 2023)
“And” between values parts separate entries of the source, which are not always exact repeats. Equal values may be shown once. Marks after values point to notes of the source that are not given here.

Key:
[1] = target: T1, porcine pancreatic α-amylase (Sus scrofa, UniProt P00690); test: Kinetic parameters and Lineweaver-Burk analysis, pancreatic α-amylase; type: biochemical; conditions: for Vmax (pancreatic α-amylase in presence of inhibitor) / Slope (Lineweaver-Burk, pancreatic α-amylase): inhibitor concentration: acarbose 387, PPC80 730, PPC82 795, PPC84 870, PPC89 675, PPC101 532 µM; for Vmax (pancreatic α-amylase in presence of inhibitor): no inhibitor Vmax 100.70 ± 0.34; for Slope (Lineweaver-Burk, pancreatic α-amylase): no inhibitor slope 0.59; for Inhibition mechanism on pancreatic α-amylase: from Km, Vmax and Lineweaver-Burk plots
T1 construct: purchased Sigma-Aldrich
T1 sequence (P00690 16-511): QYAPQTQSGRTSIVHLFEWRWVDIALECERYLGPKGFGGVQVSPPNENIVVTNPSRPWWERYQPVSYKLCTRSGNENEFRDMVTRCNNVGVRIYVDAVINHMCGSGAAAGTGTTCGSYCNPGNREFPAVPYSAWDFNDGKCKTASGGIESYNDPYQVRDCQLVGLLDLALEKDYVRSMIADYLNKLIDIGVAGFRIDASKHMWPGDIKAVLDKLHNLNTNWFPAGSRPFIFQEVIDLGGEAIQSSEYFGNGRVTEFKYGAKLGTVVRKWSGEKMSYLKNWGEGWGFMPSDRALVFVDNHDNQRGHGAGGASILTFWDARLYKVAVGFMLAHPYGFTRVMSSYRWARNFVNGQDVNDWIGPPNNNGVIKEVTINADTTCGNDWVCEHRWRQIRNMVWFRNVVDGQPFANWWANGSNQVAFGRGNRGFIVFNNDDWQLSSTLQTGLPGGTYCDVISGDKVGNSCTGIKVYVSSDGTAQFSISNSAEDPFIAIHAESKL
Description: (§1) The pancreatic α-amylase inhibition assay was carried out according to Freitas et al. with some modifications. The porcine pancreatic α-amylase (1 mg/mL) was incubated in 50 mM Tris-HCl buffer (pH 7.0) containing 10 mM CaCl2 and 1% starch. […] Afterward, microplates were pre-incubated for 10 min in a water bath at 37 °C. […] The reaction was stopped using an ice bath. All reactions were carried out in triplicate.
(§2) Kinetic parameters were determined using the same experimental conditions as described above for each enzyme. […] The enzyme concentrations were maintained as described above. […] The absorbance values were converted into product concentration (µmol/L) using standard curves of glucose (α-amylase) and p-nitrophenol (pancreatic lipase and α-glucosidase). The value of the initial velocity (v0) of enzymatic reactions was estimated to create the “v0 versus substrate concentration” graph. Kinetic constants (Km and Vmax) and slope were calculated, and the inhibition model was verified using Lineweaver–Burk plots.

[2] = target: T1, porcine pancreatic α-amylase; test: Pancreatic α-amylase inhibition assay (I% and IC50); type: biochemical; conditions: for IC50: mean ± S.E.M., n = 3, starch substrate, 37 °C, pH 7.0
Description: as §1

[3] = target: T2, porcine pancreatic lipase (Sus scrofa, UniProt P00591); test: Pancreatic lipase inhibition assay (I% and IC50); type: biochemical; conditions: for IC50: mean ± S.E.M., n = 3, substrate p-nitrophenol palmitate, 37 °C, pH 8.0; for Inhibitory action on pancreatic lipase (in words): tested concentration range
T2 construct: purchased Sigma-Aldrich
T2 sequence (P00591 1-450): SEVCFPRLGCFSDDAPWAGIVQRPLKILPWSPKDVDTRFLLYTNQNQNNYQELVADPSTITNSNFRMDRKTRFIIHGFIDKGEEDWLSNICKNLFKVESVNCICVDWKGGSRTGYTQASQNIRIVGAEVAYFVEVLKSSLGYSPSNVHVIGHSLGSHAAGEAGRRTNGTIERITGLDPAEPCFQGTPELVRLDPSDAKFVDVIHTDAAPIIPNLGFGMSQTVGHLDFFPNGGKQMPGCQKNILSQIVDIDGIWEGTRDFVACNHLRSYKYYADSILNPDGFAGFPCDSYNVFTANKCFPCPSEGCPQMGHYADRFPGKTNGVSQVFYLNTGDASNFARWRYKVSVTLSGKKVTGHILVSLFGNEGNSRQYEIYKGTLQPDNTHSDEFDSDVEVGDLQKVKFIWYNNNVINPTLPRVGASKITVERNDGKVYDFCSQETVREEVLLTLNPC
Description: (§3) The pancreatic lipase inhibition assay was performed according to Santos et al. with some modifications. The porcine pancreatic lipase (10 g/L) was incubated in 50 mmol/L Tris-HCl buffer (pH 8.0) containing 10 mM CaCl2 and 25 mM NaCl. The p-nitrophenol palmitate substrate (8 mM) was dissolved in 0.5% w/v Triton-X 100. […] All reactions were carried out in triplicate.

[4] = target: T2, porcine pancreatic lipase; test: Kinetic parameters and Lineweaver-Burk analysis, pancreatic lipase; type: biochemical; conditions: for Vmax (pancreatic lipase in presence of inhibitor) / Slope (Lineweaver-Burk, pancreatic lipase): inhibitor concentration: orlistat 101 µM, PPC80 146 µM, PPC82 159 µM, PPC84 174 µM; for Vmax (pancreatic lipase in presence of inhibitor): no inhibitor Vmax 68.65 ± 0.41; for Slope (Lineweaver-Burk, pancreatic lipase): no inhibitor slope 2.77; for Inhibition mechanism on pancreatic lipase: from Km, Vmax and Lineweaver-Burk plots
Description: as §3, §2

[5] = system: α-glucosidase; test: α-Glucosidase inhibition assay (I% and IC50); conditions: for Inhibitory action against α-glucosidase (in words): tested concentration range
[6] = system: α-glucosidase; test: Kinetic parameters and Lineweaver-Burk analysis, α-glucosidase; type: biochemical; conditions: for Inhibition mechanism on α-glucosidase: from Km, Vmax and Lineweaver-Burk plots; for Vmax (α-glucosidase in presence of inhibitor) / Slope (Lineweaver-Burk, α-glucosidase): inhibitor concentration: acarbose 387, PPC84 870, PPC89 675, PPC101 532 µM; for Vmax (α-glucosidase in presence of inhibitor): no inhibitor Vmax 62.42 ± 1.14; for Slope (Lineweaver-Burk, α-glucosidase): no inhibitor slope 2.93
Description: [20] with some modifications. […] The reaction was stopped in an ice bath. All enzyme reactions were carried out in triplicate. […] Kinetic parameters were determined using the same experimental conditions as described above for each enzyme. […] The enzyme concentrations were maintained as described above. […] The absorbance values were converted into product concentration (μmol/L) using standard curves of glucose (α-amylase) and p-nitrophenol (pancreatic lipase and α-glucosidase). The value of the initial velocity (v0) of enzymatic reactions was estimated to create the “v0 versus substrate concentration” graph. Kinetic constants (Km and Vmax) and slope were calculated, and the inhibition model was verified using Lineweaver-Burk plots.

[7] = target: T2, porcine pancreatic lipase; design: method as in PMID 12771334; conditions: 100 mg/mL; cited from earlier work

For `C[C@H]1O[C@H](O[C@H]2[C@H](O)[C@@H](O)[C@@H](O[C@H]3[C@H](O)[C@@H](O)C(O)O[C@@H]3CO)O[C@@H]2CO)[C@H](O)[C@@H](O)[C@@H]1N[C@H]1C=C(CO)[C@@H](O)[C@H](O)[C@H]1O` (some centres unmarked) [Acarbose, acarbose, reference compound], the “Vmax (pancreatic α-amylase in presence of inhibitor)” value [1] was 100.30 ± 0.89 ^a µM/min, the “Slope (Lineweaver-Burk, pancreatic α-amylase)” value [1] was 0.66 min⁻¹ and the inhibition at 620 µM ([2]; 620 µM) was roughly 86%.
In the case of `CCCCCCCCCCC[C@@H](C[C@@H]1OC(=O)[C@H]1CCCCCC)OC(=O)[C@H](CC(C)C)NC=O` [Orlistat, orlistat, reference compound], the inhibition at 807 µM ([3]; 807 µM, read-out: Inhibitory effect on pancreatic lipase activity) is reported as 60%, the “Vmax (pancreatic lipase in presence of inhibitor)” value [4] is reported as 68.34 ± 0.40 µM/min and 68.34 ± 0.40 ^a µM/min and the “Slope (Lineweaver-Burk, pancreatic lipase)” value [4] is reported as 4.10 min⁻¹.
With `CCCCCCCCNC(=O)[C@@H](NC(=O)OC(C)(C)C)[C@@H](C)CC` [PPC80] the “Inhibition mechanism on pancreatic α-amylase” value [1] was “non-competitive or mixed inhibition mechanism”, the “Vmax (pancreatic α-amylase in presence of inhibitor)” value [1] was 91.75 ± 0.48 µM/min and the “Slope (Lineweaver-Burk, pancreatic α-amylase)” value [1] was 0.89 min⁻¹. For the same compound, the inhibition at 584 µM ([3]; 584 µM, read-out: Inhibitory effect on pancreatic lipase activity) was roughly 65%, the IC50 [3] was 475 ± 8.25 µM and the “Inhibition mechanism on pancreatic lipase” value [4] was “competitive mechanism”. The “Vmax (pancreatic lipase in presence of inhibitor)” value [4] was 68.82 ± 0.57 µM/min and 68.82 ± 0.57 ^a µM/min, the “Slope (Lineweaver-Burk, pancreatic lipase)” value [4] was 4.65 min⁻¹ and the inhibition at 730 µM ([2]; 730 µM) was roughly 93%. For the same compound, the IC50 [2] was 276 ± 5.21 µM and the “Inhibitory action against α-glucosidase (in words)” value [5] was “did not show inhibitory action”.
With `CCCCCCNC(=O)[C@@H](NC(=O)OC(C)(C)C)[C@@H](C)CC` [PPC82] the “Inhibition mechanism on pancreatic α-amylase” value [1] was “competitive-type inhibition mechanism”, the “Vmax (pancreatic α-amylase in presence of inhibitor)” value [1] was 99.70 ± 1.20 ^a µM/min and the “Slope (Lineweaver-Burk, pancreatic α-amylase)” value [1] was 0.72 min⁻¹. The inhibition at 477 µM ([3]; 477 µM, read-out: Inhibitory effect on pancreatic lipase activity) was roughly 86%, the IC50 [3] was 167 ± 6.25 µM and the “Inhibition mechanism on pancreatic lipase” value [4] was “competitive mechanism”. For the same compound, the “Vmax (pancreatic lipase in presence of inhibitor)” value [4] was 69.13 ± 0.57 µM/min and 69.13 ± 0.57 ^a µM/min, the “Slope (Lineweaver-Burk, pancreatic lipase)” value [4] was 5.79 min⁻¹ and the inhibition at 1590 µM ([2]; 1590 µM) was roughly 94%. The IC50 [2] was 519 ± 20 µM and the “Inhibitory action against α-glucosidase (in words)” value [5] was “did not show inhibitory action”.
For `CC[C@H](C)[C@H](NC(=O)OC(C)(C)C)C(=O)NCCCN` [PPC84], the “Inhibition mechanism on pancreatic α-amylase” value [1] was “non-competitive or mixed inhibition mechanism”, the “Vmax (pancreatic α-amylase in presence of inhibitor)” value [1] was 94.35 ± 0.51 µM/min and the “Slope (Lineweaver-Burk, pancreatic α-amylase)” value [1] was 0.80 min⁻¹. For the same compound, the inhibition at 1392 µM ([3]; 1392 µM, read-out: Inhibitory effect on pancreatic lipase activity) was roughly 62%, the IC50 [3] was 1020 ± 20.3 µM and the “Inhibition mechanism on pancreatic lipase” value [4] was “mixed or non-competitive inhibition mechanism”. The “Vmax (pancreatic lipase in presence of inhibitor)” value [4] was 62.76 ± 0.3 µM/min and 62.76 ± 0.35 µM/min, the “Slope (Lineweaver-Burk, pancreatic lipase)” value [4] was 3.19 min⁻¹ and the inhibition at 870 µM ([2]; 870 µM) was roughly 74%. The IC50 [2] was 493 ± 11 µM, the “Inhibition mechanism on α-glucosidase” value [6] was “competitive inhibitors” and the “Vmax (α-glucosidase in presence of inhibitor)” value [6] was 62.90 ± 0.60 µM/min and 62.90 ± 0.60 ^a µM/min. The “Slope (Lineweaver-Burk, α-glucosidase)” value [6] was 4.29 min⁻¹ and the “Inhibition of α-glucosidase” value ([5]; 435 µM) was roughly 66%.
In the case of `CCCCCCCCCCNC(=O)[C@@H](NC(=O)OC(C)(C)C)[C@@H](C)CC` [PPC89], the “Inhibition mechanism on pancreatic α-amylase” value [1] is reported as “competitive-type inhibition mechanism”, the “Vmax (pancreatic α-amylase in presence of inhibitor)” value [1] is reported as 99.73 ± 1.77 ^a µM/min and the “Slope (Lineweaver-Burk, pancreatic α-amylase)” value [1] is reported as 0.76 min⁻¹. The “Inhibitory action on pancreatic lipase (in words)” value [3] was “did not show inhibitory action”, the “Inhibitory effect on pancreatic α-amylase (in words)” value ([2]; 405 µM, compared with acarbose 620 µM) was “same inhibitory effect as acarbose” and the inhibition at 675 µM ([2]; 675 µM) was roughly 90%. The IC50 [2] was 171 ± 13.6 µM, the “Inhibition mechanism on α-glucosidase” value [6] was “competitive inhibitors” and the “Vmax (α-glucosidase in presence of inhibitor)” value [6] was 62.30 ± 1.33 µM/min and 62.30 ± 1.33 ^a µM/min. For the same compound, the “Slope (Lineweaver-Burk, α-glucosidase)” value [6] was 4.11 min⁻¹ and the “Inhibition of α-glucosidase” value ([5]; 674 µM) was roughly 78%.
With `CCCCCCCCCCCCNCCCCNC(=O)[C@@H](NC(=O)OC(C)(C)C)[C@@H](C)CC` [PPC101] the “Inhibition mechanism on pancreatic α-amylase” value [1] was “competitive-type inhibition mechanism”, the “Vmax (pancreatic α-amylase in presence of inhibitor)” value [1] was 100.00 ± 1.55 ^a µM/min and the “Slope (Lineweaver-Burk, pancreatic α-amylase)” value [1] was 0.70 min⁻¹. The “Inhibitory action on pancreatic lipase (in words)” value [3] was “did not show inhibitory action”, the inhibition at 532 µM ([2]; 532 µM) was roughly 86% and the IC50 [2] was 162 ± 1.73 µM. For the same compound, the “Inhibition mechanism on α-glucosidase” value [6] was “competitive inhibitors”, the “Vmax (α-glucosidase in presence of inhibitor)” value [6] was 63.09 ± 1.45 µM/min and 63.09 ± 1.45 ^a µM/min and the “Slope (Lineweaver-Burk, α-glucosidase)” value [6] was 4.94 min⁻¹. The “Inhibition of α-glucosidase” value ([5]; 67 µM) was roughly 64% and the IC50 ([5]; read-out: IC50 α-Glucosidase, mean ± S.E.M., n = 3, substrate p-nitrophenyl-α-D-glucopyranoside, 37 °C, pH 7.0) was 51 ± 1.73 µM.
For Polylysine, the “Inhibition of porcine pancreatic lipase activity” value [7] is listed as 80%.
